Columns and labels:
Syk = target: T1, Syk (Homo sapiens, UniProt P43405); assay: Syk Biochemical Assay (ADP-Glo luminescence); conditions: ATP 40 μM final, 60 minutes, read-out: SYK Biochem IC50
T1 construct: purchased Promega
Description: Compounds were serially diluted in 100% DMSO, prior to an intermediate dilution in water. In a low volume white 384-well Proxiplate (Perkin Elmer), 1 μL of compound (0.4% final DMSO) was added to 3 μL of 10 ng/well Syk (Promega) and 0.2 mg/mL Poly-E4Y1 substrate (Promega) in assay buffer (final 40 mM Tris-HCl pH 7.4, 20 mM MgCl2, 0.1 mg/mL BSA) for 5 minutes. The reaction was initiated by addition of 1 μL of ATP (40 μM final) and allowed to proceed for 60 minutes at room temperature. The reaction was terminated by addition of 5 μL of ADP-Glo Reagent Mix (Promega) containing 1 mM MgCl2 for 45 minutes at room temperature. 10 μL of Kinase Detection Reagent (Promega) was added and incubated for 10 minutes at room temperature, before luminescence was measured using an Ensight Multimode Plate Reader (Perkin Elmer).

Ba/F3-Syk cells = target: T2, Ba/F3-Syk cells (Homo sapiens, UniProt P43405); assay: Ba/F3 Proliferation Assay, Ba/F3-Syk cells (Resazurin); assay type: cell-based; conditions: 48-hour incubation
T2 construct: fused on or other part: Possible but unprinted fusion partner: TEL (ETV6), the usual partner for Ba/F3 lines transformed by Syk; Nothing on a partner is printed

[1] = tested on: Ba/F3-WT (wild type) cells; assay: Ba/F3 Proliferation Assay, Ba/F3-WT (wild type) cells with mIL-3 (Resazurin); assay type: cell-based; conditions: Ba/F3-WT cells +mIL-3, 48-hour incubation

## C[C@H]1CNC[C@@H](COc2nc(-c3cnn(C)c3)cc3ncccc23)O1 (relative stereo) [Compound 2.24, 7-(1-methyl-1H-pyrazol-4-yl)-5-{[(rel-2S,6S)-6-methylmorpholin-2-yl]methoxy}-1,6-naphthyridine]
Syk
  IC50: 128 nM
Ba/F3-Syk cells
  EC50: 135 nM
[1]; Mus musculus, BaF3, 48 h
  EC50: 1500 nM

## C[C@@H]1CNC[C@@H](COc2nc(-c3cnn(C)c3)cc3ncccc23)O1 (relative stereo) [Compound 2.25, 7-(1-methyl-1H-pyrazol-4-yl)-5-{[(rel-2S,6R)-6-methylmorpholin-2-yl]methoxy}-1,6-naphthyridine]
Syk
  IC50: 39 nM
Ba/F3-Syk cells
  EC50: 62.1 nM
[1]; Mus musculus, BaF3, 48 h
  EC50: 1510 nM

## C[C@H]1CO[C@H](COc2nc(-c3cnn(C)c3)cc3ncccc23)CN1 (relative stereo) [Compound 2.26, 7-(1-methyl-1H-pyrazol-4-yl)-5-{[(rel-2S,5S)-5-methylmorpholin-2-yl]methoxy}-1,6-naphthyridine]
Syk
  IC50: 131 nM
Ba/F3-Syk cells
  EC50: 216 nM
[1]; Mus musculus, BaF3, 48 h
  EC50: 1450 nM

## C[C@@H]1CO[C@H](COc2nc(-c3cnn(C)c3)cc3ncccc23)CN1 (relative stereo) [Compound 2.27, 7-(1-methyl-1H-pyrazol-4-yl)-5-{[(rel-2S,5R)-5-methylmorpholin-2-yl]methoxy}-1,6-naphthyridine]
Syk
  IC50: 247 nM
Ba/F3-Syk cells
  EC50: 305 nM
[1]; Mus musculus, BaF3, 48 h
  EC50: 1500 nM

## c1cnc2cc(-c3cnn(C4COC4)c3)nc(OC[C@@H]3CNCCO3)c2c1 [Compound 2.11, 5-{[(2S)-morpholin-2-yl]methoxy}-7-[1-(oxetan-3-yl)-1H-pyrazol-4-yl]-1,6-naphthyridine]
Syk
  IC50: 18.2 nM
Ba/F3-Syk cells
  EC50: 131 nM

## FC(F)Cn1ccc(-c2cc(OC[C@@H]3CNCCO3)c3cccnc3c2)c1 [Compound 7.2, 7-[1-(2,2-difluoroethyl)-1H-pyrrol-3-yl]-5-{[(2S)-morpholin-2-yl]methoxy}quinoline]
Syk
  IC50: 10.1 nM
[1]
  EC50: 2480 nM
[1]; Mus musculus, BaF3, 48 h
  EC50: 2110 nM

## CC(C)(C)n1cc(-c2cc(OC[C@@H]3CNCC4(CCC4)O3)c3cccnc3c2)cn1 [Compound 11.9, 7-(1-tert-butyl-1H-pyrazol-4-yl)-5-{[(6S)-5-oxa-8-azaspiro[3.5]nonan-6-yl]methoxy}quinoline]
Ba/F3-Syk cells
  EC50: 10 nM
[1]; Mus musculus, BaF3, 48 h
  EC50: 1580 nM

## C[C@@H](Oc1cc(-c2ccn(C)c2)cc2ncccc12)[C@@H]1CNCCO1 [Compound 11.10, 7-(1-methyl-1H-pyrrol-3-yl)-5-[(1R)-1-[(2S)-morpholin-2-yl]ethoxy]quinoline]
Ba/F3-Syk cells
  EC50: 121 nM
[1]; Mus musculus, BaF3, 48 h
  EC50: 1700 nM

## Cn1cc(-c2cc(OC[C@@H]3CNCC4(CC4)O3)c3nccnc3c2)cn1 [Compound 12.1, 7-(1-methyl-1H-pyrazol-4-yl)-5-{[(5S)-4-oxa-7-azaspiro[2.5]octan-5-yl]methoxy}quinoxaline]
Ba/F3-Syk cells
  EC50: 214 nM
[1]; Mus musculus, BaF3, 48 h
  EC50: > 10000 nM

## CC(C)n1cc(-c2cc(OC[C@@H]3CNCC4(CC4)O3)c3nccnc3c2)cn1 [Compound 12.2, 5-{[(5S)-4-oxa-7-azaspiro[2.5]octan-5-yl]methoxy}-7-[1-(propan-2-yl)-1H-pyrazol-4-yl]quinoxaline]
Ba/F3-Syk cells
  EC50: 29.1 nM
[1]; Mus musculus, BaF3, 48 h
  EC50: 1620 nM

## CC(C)(C)n1cc(-c2cc(OC[C@@H]3CNCC4(CC4)O3)c3nccnc3c2)cn1 [Compound 12.3, 7-(1-tert-butyl-1H-pyrazol-4-yl)-5-{[(5S)-4-oxa-7-azaspiro[2.5]octan-5-yl]methoxy}quinoxaline]
Ba/F3-Syk cells
  EC50: 27.3 nM
[1]; Mus musculus, BaF3, 48 h
  EC50: 1300 nM

## Cn1ccc(-c2cc(OC[C@@H]3CNCC4(CC4)O3)c3nccnc3c2)c1 [Compound 12.4, 7-(1-methyl-1H-pyrrol-3-yl)-5-{[(5S)-4-oxa-7-azaspiro[2.5]octan-5-yl]methoxy}quinoxaline]
Ba/F3-Syk cells
  EC50: 27.5 nM
[1]; Mus musculus, BaF3, 48 h
  EC50: 3070 nM

## C[C@@H]1CNC[C@@H](COc2cc(-c3cnn(C)c3)cc3nccnc23)O1 [Compound 12.5, 7-(1-methyl-1H-pyrazol-4-yl)-5-{[(2S,6R)-6-methylmorpholin-2-yl]methoxy}quinoxaline]
Ba/F3-Syk cells
  EC50: 50.9 nM
[1]; Mus musculus, BaF3, 48 h
  EC50: 1300 nM

## CC(C)n1cc(-c2cc(OC[C@@H]3CNC[C@@H](C)O3)c3nccnc3c2)cn1 [Compound 12.6, 5-{[(2S,6R)-6-methylmorpholin-2-yl]methoxy}-7-[1-(propan-2-yl)-1H-pyrazol-4-yl]quinoxaline]
Ba/F3-Syk cells
  EC50: 9.9 nM
[1]; Mus musculus, BaF3, 48 h
  EC50: 478 nM

## C[C@@H]1CNC[C@@H](COc2cc(-c3cnn(C(C)(C)C)c3)cc3nccnc23)O1 [Compound 12.7, 7-(1-tert-butyl-1H-pyrazol-4-yl)-5-{[(2S,6R)-6-methylmorpholin-2-yl]methoxy}quinoxaline]
Ba/F3-Syk cells
  EC50: 9.2 nM
[1]; Mus musculus, BaF3, 48 h
  EC50: 989 nM

## c1cnc2cc(-c3ccns3)nc(OC[C@@H]3CNCCO3)c2c1 [Compound 13.1, 5-{[(2S)-morpholin-2-yl]methoxy}-7-(1,2-thiazol-5-yl)-1,6-naphthyridine]
Ba/F3-Syk cells
  EC50: 586 nM
[1]; Mus musculus, BaF3, 48 h
  EC50: 6360 nM

## Cn1ccc(-c2cc3ncccc3c(O[C@@H]([C@@H]3CNCCO3)C(F)(F)F)n2)c1 [Compound 13.3, 7-(1-methyl-1H-pyrrol-3-yl)-5-[(1S)-2,2,2-trifluoro-1-[(2S)-morpholin-2-yl]ethoxy]-1,6-naphthyridine]
Ba/F3-Syk cells
  EC50: 1210 nM
[1]; Mus musculus, BaF3, 48 h
  EC50: > 10000 nM

## CC1(C)CCO[C@H](COc2nc(-c3cnn(C(C)(C)C)c3)cc3ncccc23)CN1 [Compound 13.4, 7-(1-tert-butyl-1H-pyrazol-4-yl)-5-{[(2S)-5,5-dimethyl-1,4-oxazepan-2-yl]methoxy}-1,6-naphthyridine]
Ba/F3-Syk cells
  EC50: 214 nM
[1]; Mus musculus, BaF3, 48 h
  EC50: 5750 nM

## C[C@@H]1NCCO[C@@H]1COc1nc(-c2ccn(C)c2)cc2ncccc12 [Compound 13.5, 7-(1-methyl-1H-pyrrol-3-yl)-5-{[(2S,3S)-3-methylmorpholin-2-yl]methoxy}-1,6-naphthyridine]
Ba/F3-Syk cells
  EC50: 51.7 nM
[1]; Mus musculus, BaF3, 48 h
  EC50: 6310 nM

## C[C@@H]1NCCO[C@@H]1COc1nc(-c2cnn(C(C)(C)C)c2)cc2ncccc12 [Compound 13.6, 7-(1-tert-butyl-1H-pyrazol-4-yl)-5-{[(2S,3S)-3-methylmorpholin-2-yl]methoxy}-1,6-naphthyridine]
Ba/F3-Syk cells
  EC50: 36.2 nM
[1]; Mus musculus, BaF3, 48 h
  EC50: 5560 nM

## C[C@H](Oc1cc(-c2cnn(C(C)(C)C)c2)cc2ncccc12)[C@@H]1CNCCO1 [Compound 14.1, 7-(1-tert-butyl-1H-pyrazol-4-yl)-5-[(1S)-1-[(2S)-morpholin-2-yl]ethoxy]quinoline]
Ba/F3-Syk cells
  EC50: 1340 nM
[1]; Mus musculus, BaF3, 48 h
  EC50: > 10000 nM

## C[C@@H](Oc1cc(-c2cnn(C(C)(C)C)c2)cc2ncccc12)[C@@H]1CNCCO1 [Compound 14.2, 7-(1-tert-butyl-1H-pyrazol-4-yl)-5-[(1R)-1-[(2S)-morpholin-2-yl]ethoxy]quinoline]
Ba/F3-Syk cells
  EC50: 81.8 nM
[1]; Mus musculus, BaF3, 48 h
  EC50: 1880 nM

## FC(F)c1cc(-c2cc(OC[C@@H]3CNCCO3)c3cccnc3c2)cs1 [Compound 14.3, 7-[5-(difluoromethyl)thiophen-3-yl]-5-{[(2S)-morpholin-2-yl]methoxy}quinoline]
Ba/F3-Syk cells
  EC50: 176 nM
[1]; Mus musculus, BaF3, 48 h
  EC50: 1920 nM

## FC(F)c1csc(-c2cc(OC[C@@H]3CNCCO3)c3cccnc3c2)c1 [Compound 14.4, 7-[4-(difluoromethyl)thiophen-2-yl]-5-{[(2S)-morpholin-2-yl]methoxy}quinoline]
Ba/F3-Syk cells
  EC50: 196 nM
[1]; Mus musculus, BaF3, 48 h
  EC50: 1900 nM

## CC(C)(C)c1ccc(-c2cc(OC[C@@H]3CNCCO3)c3cccnc3c2)s1 [Compound 14.5, 7-(5-tert-butylthiophen-2-yl)-5-{[(2S)-morpholin-2-yl]methoxy}quinoline]
Ba/F3-Syk cells
  EC50: 428 nM
[1]; Mus musculus, BaF3, 48 h
  EC50: 1200 nM

## Cc1ccnc2cc(-c3cnn(C(C)(C)C)c3)cc(OC[C@@H]3CNCC(C)(C)O3)c12 [Compound 14.9, 7-(1-tert-butyl-1H-pyrazol-4-yl)-5-{[(2S)-6,6-dimethylmorpholin-2-yl]methoxy}-4-methylquinoline]
Ba/F3-Syk cells
  EC50: 5.9 nM
[1]; Mus musculus, BaF3, 48 h
  EC50: 1220 nM

## Cc1cnc2cc(-c3cnn(C(C)C)c3)nc(OC[C@@H]3CNCC(C)(C)O3)c2c1 [Compound 14.10, 5-{[(2S)-6,6-dimethylmorpholin-2-yl]methoxy}-3-methyl-7-[1-(propan-2-yl)-1H-pyrazol-4-yl]-1,6-naphthyridine]
Ba/F3-Syk cells
  EC50: 44.9 nM
[1]; Mus musculus, BaF3, 48 h
  EC50: 1070 nM

## COCCn1ccc(-c2cc(OC[C@@H]3CNCC(C)(C)O3)c3c(C)ccnc3c2)c1 [Compound 14.11, 5-{[(2S)-6,6-dimethylmorpholin-2-yl]methoxy}-7-[1-(2-methoxyethyl)-1H-pyrrol-3-yl]-4-methylquinoline]
Ba/F3-Syk cells
  EC50: 6.1 nM
[1]; Mus musculus, BaF3, 48 h
  EC50: 803 nM

## Cc1ccnc2cc(-c3ccn(C4COC4)c3)cc(OC[C@@H]3CNCC(C)(C)O3)c12 [Compound 14.12, 5-{[(2S)-6,6-dimethylmorpholin-2-yl]methoxy}-4-methyl-7-[1-(oxetan-3-yl)-1H-pyrrol-3-yl]quinoline]
Ba/F3-Syk cells
  EC50: 5.5 nM
[1]; Mus musculus, BaF3, 48 h
  EC50: 867 nM

## CC1(C)CNC[C@@H](COc2nc(-c3cnn(C(C)(C)C)c3)cc3nccc(C(F)(F)F)c23)O1 [Compound 14.13, 7-(1-tert-butyl-1H-pyrazol-4-yl)-5-{[(2S)-6,6-dimethylmorpholin-2-yl]methoxy}-4-(trifluoromethyl)-1,6-naphthyridine]
Ba/F3-Syk cells
  EC50: 20 nM
[1]; Mus musculus, BaF3, 48 h
  EC50: 865 nM

Reference: patent publication US20250263408A1 (Uniquest Pty Ltd, priority 2022, published 2025)
